Entries after “also recorded” stand apart in the source; their conditions may differ.
Tests used:
FKBP52 = biological target: T1, FKBP52 (Homo sapiens, UniProt Q02790); test: Binding constants (Kd) for FKBP52, isothermal titration calorimetry
T1 construct: His6 (N); made in house
T1 sequence (Q02790 1-459): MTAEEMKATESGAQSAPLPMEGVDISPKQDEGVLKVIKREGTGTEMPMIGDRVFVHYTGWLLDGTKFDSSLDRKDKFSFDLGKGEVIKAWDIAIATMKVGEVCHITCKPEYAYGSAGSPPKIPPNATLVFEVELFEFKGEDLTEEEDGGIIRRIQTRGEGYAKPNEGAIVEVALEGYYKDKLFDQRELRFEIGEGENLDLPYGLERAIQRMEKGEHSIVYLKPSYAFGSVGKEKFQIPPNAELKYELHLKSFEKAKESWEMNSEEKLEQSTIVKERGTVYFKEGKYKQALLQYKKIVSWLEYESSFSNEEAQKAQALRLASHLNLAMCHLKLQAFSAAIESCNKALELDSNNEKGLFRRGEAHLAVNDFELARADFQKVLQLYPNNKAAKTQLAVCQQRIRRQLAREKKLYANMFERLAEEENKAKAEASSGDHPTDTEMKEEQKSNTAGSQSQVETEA
From the text: SLF was synthesized according to the procedures of Holt et al. [J. Am. Chem. Soc. 1993, 115, 9925]. SLF was coupled to the N-terminus of the resin-bound protected pYEEI peptide using PyBOP. The heterodimeric SLFpYEEI was deprotected and cleaved from the Novasyn TGT resin (Calbiochem-Novabiochem, San Diego, Ca.) using 25% trifluoroacetic acid and 2.5% triisopropyl silane in methylene chloride and the desired product was isolated using reverse phase HPLC. C. […] Recombinant FKBP12 was expressed as a GST fusion protein and bound to glutathione beads (Pharmacia). Using thrombin (Sigma) to cleave the GST-FKBP12 fusion protein at a thrombin cleavage site in the linker between GST and FKBP12, recombinant FKBP12 could be released from the glutathione beads where GST remained bound. FKBP52 was expressed with a tag of six histidine residues at its N-terminus (pET28c expression vector, Novagen). The recombinant protein was bound via the histidine tag to Ni^2+ NTA agarose beads (Qiagen), washed extensively and eluted with imidazole. […]
SLFpYEEI and FKpYEEI are bifunctional molecules that can bind FKBP12 and FKBP52 as well as the Fyn SH2 domain (FIG. 2). The binding constants (Kd values) of the bifunctional molecules for the three proteins were measured using isothermal titration calorimetry (ITC) (Table 1).

Fyn SH2 domain = biological target: T2, Fyn SH2 domain (Homo sapiens, UniProt P06241); test: Competition binding assay of radioactive Fyn SH2 domain to pYEEI beads; conditions: for Effect of FKBP12 on affinity for the Fyn SH2 domain: 1.0 µM ligand plus FKBP12 (0.25-4.0 µM or 2.0 µM)
T2 construct: The Fyn, Lck and PLC SH2 domains were expressed in bacteria as GST fusion proteins; GST (cleaved yes); made in house; host or cells: bacteria
From the text: The pYEEI peptide was coupled to Affi-Gel 10 beads (Biorad) via its amino-group. The Fyn, Lck and PLC SH2 domains were expressed in bacteria as GST fusion proteins. The linker between the GST protein and the SH2 domain contained a thrombin cleavage site and a protein kinase A (PKA) phosphorylation site. The fusion protein on glutathione beads was radioactively labeled at the PKA phosphorylation site using PKA (Sigma). After extensive washing of the beads, the radioactive SH2 domain was released by cleavage with thrombin (Sigma). In a typical binding assay, 7.5 L of a 1:1 peptide bead slurry were incubated with the radioactive SH2 domain (200 nM) for 2 hours in 100 L of binding buffer (20 mM Tris pH7.2; 150 mM NaCl). In order to separate the radioactive protein bound to the beads, the binding reaction was transfered into a PCR tube (USA Scientific Plastic), whose bottom had been punctured with a 26gauge needle. The PCR tube was placed in a 0.5 mL Eppendorf tube which in turn was placed in a regular 1.5 mL Eppendorf tube. The tubes were spun for 1 second at maximal speed in an Eppendorf centrifuge resulting in the separation of the beads remaining in the PCR tube and the supernatant, which was collected in the 0.5 ml Eppendorf tube. The beads were resuspended in […] PBS and the radioactivity was counted in a liquid scintillation counter after addition of 3 ml scintillation fluid. The radioactivity remaining in the 100 L supernatant was counted in the same way. It was determined that under the conditions described 65% Fyn, 25% PLC and 15%Lck SH2 domain were bound to the beads. By increasing the amount of beads, up to 80% Fyn, 40% PLC and 25% Lck could be bound. These amounts reflect the active fraction of SH2 domains in the different protein preparations.
In order to determine the relative affinity of the SH2 domains for FKpYEEI or SLFpYEEI alone and FKpYEEI or SLFpYEEI bound to FKBP12 and FKBP52, the following competition assay was used. Radioactive SH2 domains were incubated with pYEEI peptide beads and FKpYEEI or SLFpYEEI in the presence or absence of the respective FKBP proteins. FKpYEEI and FKpYEEI/FKBP as well as SLFpYEEI and SLFpYEEI/FKBP compete for binding of the SH2 domains with the peptide beads. The higher the affinity of the FKpYEEI or SLFpYEEI ligand in the supernatant, the less SH2 domain is bound to the peptide beads (FIG. 3).
Using the competition binding assay described above, FKpYEEI was added to peptide beads and the Fyn SH2 domain in the presence of increasing concentrations of FKBP52 (FIG. 4). In this assay, in 100 L binding reactions, radioactively labeled Fyn SH2 domain (200 nM) was incubated with 7.5 L of a 1:1 pYEEI bead slurry. No FKpYEEI, 1.0 M FKpYEEI or 1.0 M FKpYEEI plus increasing concentrations of FKBP52 (0.25-4.0 M) were added. The binding reactions were rotated at room temperature for 2 hours. The supernatant was separated from the beads by spinning the binding reactions in punctured PCR tubes for 1 sec in an Eppendorf centrifuge at maximal speed. The beads were resuspended in 100 1 PBS and the radioactivity bound to the beads was counted in a liquid scintillation vial for 30 sec. The radioactivity bound to the beads in the presence of only the Fyn SH2 domain was plotted as 100% of maximal Fyn SH2 domain binding to pYEEI beads. The radioactivity bound in the presence of FKpYEEI and FKBP52 was calculated as the percentage of maximal Fyn SH2 domain binding. Every binding reaction was done in triplicate. The data points reflect the average of the three binding reactions. The error bars indicate the standard error.
In this assay, in 100 L binding reactions, radioactively labeled Fyn SH2 domain (200 nM) was incubated with 7.5 L of a 1:1 pYEEI bead slurry. […] The binding reactions were rotated at room temperature for 2 hours, centrifuged and analysed as described above. […]

T2 sequence (P06241 149-246 limits assumed): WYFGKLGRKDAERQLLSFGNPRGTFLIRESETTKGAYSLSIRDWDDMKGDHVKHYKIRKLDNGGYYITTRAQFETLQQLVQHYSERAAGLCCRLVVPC

Compound | Kd (FKBP52) | Effect of FKBP12 on affinity for the Fyn SH2 domain (Fyn SH2 domain) | Effect of FKBP52 on affinity for the Fyn SH2 domain (Fyn SH2 domain; 1.0 M ligand plus FKBP52 0.25-4.0 M) | Enhancement of affinity in the context of FKBP52 in respect to pYEEI (Fyn SH2 domain; IC50 of FKpYEEI plus FKBP52 vs IC50 of pYEEI) | Factor of affinity enhancement for the Fyn SH2 domain in complex with FKBP52 (Fyn SH2 domain; IC50 with FKBP52 vs without) | Factor of affinity reduction for the Fyn SH2 domain in complex with FKBP12 (Fyn SH2 domain; IC50 with FKBP12 vs without)
CC[C@H](C)[C@H](NC(=O)[C@H](CCC(=O)O)NC(=O)[C@H](CCC(=O)O)NC(=O)[C@H](Cc1ccc(OP(=O)(O)O)cc1)NC(=O)OCC[C@@H]1/C=C(\C)C[C@H](C)C[C@H](OC)[C@H]2O[C@@](O)(C(=O)C(=O)N3CCCC[C@H]3C(=O)O[C@H](/C(C)=C/[C@@H]3CC[C@@H](O)[C@H](OC)C3)[C@H](C)[C@@H](O)CC1=O)[C@H](C)C[C@@H]2OC)C(=O)O [FKpYEEI] | 0.15 µM | does not enhance the binding affinity for the Fyn SH2 domain; also recorded: does not affect the affinity | higher affinity for the Fyn SH2 domain | 4.4 fold | three | –
CC[C@H](C)[C@H](NC(=O)[C@H](CCC(=O)O)NC(=O)[C@H](CCC(=O)O)NC(=O)[C@H](Cc1ccc(OP(=O)(O)O)cc1)NC(=O)COc1cccc([C@@H](CCc2ccc(OC)c(OC)c2)OC(=O)[C@@H]2CCCCN2C(=O)C(=O)C(C)(C)CC)c1)C(=O)O [SLFpYEEI] | – | reduced affinity for the Fyn SH2 domain; also recorded: reduced binding | – | – | – | six
